Experimental data from patent US4904697A, “Controlling the growth of certain tumor tissue with chalcone derivatives” (Merrell Dow Pharmaceuticals Inc., priority 1987, dated 1990).
In brackets after ≈: the same amount, converted by molar mass. Where two headings read alike, the source gives them in different places.

Assays:
L1210 Leukemia = assay: Survival of L1210 leukemia in mice; assay type: in vivo
From the text: (§1) The effect of a chalcone derivative of structure 1 to control the growth of tumor tissue can be assessed in standard animal tumor models, for example, in the following animal tumor modes: (a) L1210 leukemia in mice, (b) EMT6 tumor in Balb/C mice, (c) 7,12-dimethylbenzanthracene-induced (DMBA-induced) mammary tumor in rats, and (d) Morris 7288C or 5123 hepatoma in Buffalo rats.
(C) Effect of α-methyl-4-Dimethylamino-2',5'-dimethoxychalcone
and Other Mitotic Inhibitors on the Survival of L1210 Leukemia in
1 × 10^5 leukemic cells/animal were inoculated (i.p.) on day
zero. The compounds were suspended or dissolved in 5% polyvinylpyrrolidon
(PVP) and administered once daily from day 1-9 (i.p.). The survival of th
animals was noted and average survival was determined.

[1] = system: Human Choriotrophoblast Tumor (JAr); assay: Growth of human choriotrophoblast tumor (JAr) in athymic mice; assay type: in vivo
From the text: as §1
(D) Effect of α-methyl-4-Dimethylamino-2',5'-
dimethoxychalcone On the Growth of Human
Choriotrophoblast Tumor (JAr) In Athymic Mice
JAr cells (1.5 × 10^6 cells/animal) were injected (s.c.) on day
zero. The compound, 4dimethylamino-2',5dimethoxychalcone, was suspended i
5 per cent polyvinylpyrrolidone (PVP) and administered (i.p.) once daily
as indicated. At the end of 12 days the animals were sacrificed, tumors

HeLa cells [2] = assay: Mitotic accumulation (mitotic arrest) of HeLa cells; assay type: cell-based; conditions: Homo sapiens, read-out: MITOTIC ARREST Minimum Effectice Concentration
Description: Exponentially growing human carcinoma (HeLa) cells are plated at a densit
of 1 × 10^4 cells/well in a 24 well plate. The compounds were
dissolved in dimethylsulfoxide and diluted with complete medium. The cell
were innoculated with the medium containing the test compound either for
hours or 1 hour. For the 1 hour test, the cells were washed twice and
further grown for 18 hours in the presence of drug free medium. The
mitotic cells in the supernatent were collected and were pooled with the
trypsinized cells and cytopreps were made on slides using a
cytocentrifuge. The slides were fixed with Carnoy's solution, stained wit
acetoorcein, and the mitotic index was determined.

B16 Melanoma [3] = assay: Survival of B16 melanoma bearing mice; assay type: in vivo
From the text: as §1
(§2) (B) Effect of α-methyl-4-Dimethylamino-2',5'-dimethoxychalcone On
(§3) the Growth and Survival of B16 Melanoma Bearing Mice
(§4) 1 × 10^5 B16 melanoma cells/animal were injected (s.c.) or
(§5) (i.p.)? on day 0. Compounds suspended in 5 percent polyvinylpyrrolidone
(§6) (PVP) were administered once daily (i.p. ) from day 1-15. For tumor growt
and weighed. For survival studies the survival days of each animal was
noted and average survival was determined.

B16 Melanoma [4] = assay: Growth of B16 melanoma in mice (tumor weight); assay type: in vivo; conditions: for TUMOR GROWTH (Mean ± S.E., n = 10): tumors weighed day 18
From the text: as §1, §2, §3, §4, §5, §6
studies the animals were sacrificed on day 18, the tumors were excised,
and weighed. For survival studies the survival days of each animal was […]

P388 Leukemia = assay: Survival of P388 leukemia bearing mice; assay type: in vivo
From the text: as §1
(A) Effect of α-methyl-4-Dimethylamino-2',5'-dimethoxychalcone
on the Survival of P388 Leukemia Bearing Mice
1 × 10^5 P388 leukemia cells/animal were inoculated (i.p.) on
day zero. Compound was suspended in 5% polyvinylpyrrolidone (PVP) and was
administered (i.p.) once daily from day 1-9. The survival of the animals
was noted and the average survival was determined.

HeLa cells [5] = assay: Growth inhibition of HeLa cells; assay type: cell-based; conditions: Homo sapiens, 72 h, read-out: GROWTH INHIBITION IC50
Description: For growth inhibition studies, exponentially growing HeLa cells were
incubated at a density of 1 × 10^5 cells/35 mm dish with a
number of dilutions of the test compound in the medium. The plates were
incubated at 37° C. in a CO2 incubation. At the end of 72
hours the cells were collected by trypinization and counted and the […]

[6] = Experimental Allergic Encephalomyelitis (EAE) in rats; assay type: in vivo, rats (Lewis strain); conditions: 25.0 mg/kg s.c. once every other day, day 1 through 10
From the text: The compounds of structure 1 inhibit the destruction of myelin sheath surrounding the axons of the central nervous system. This myelin destruction is characteristic in those individuals suffering from multiple sclerosis. By preventing the destruction of myelin in multiple sclerosis patients, the compounds of structure 1 will prevent or reduce the progressive nature of the disease, prevent or increase the length of time between the recurrent episodes of the disease, and prevent or suppress the formation of the scarlike, multiple sclerotic plaques characteristic of the disease. […] This myelin brings about an immune response in the individual in which the myelin sheath is destroyed. EAE is an experimental model of multiple sclerosis.
Effect of α-methyl-4-dimethylamino-2',5'-dimethoxychalcone on
Experimental Allergic Encephalomyelitis (EAE) In Rats
EAE was induced in rats as described by Rosenthal and Nagra, Proc. Soc.
Exp. Biol. Med. 125, 149 (1967). Lewis strain rats ranging in weight from
100-200 g were sensitized with encephalitogenic emulsion consisting of
homogenized spinal cord in complete Freund's adjuvant. The test compound
and hydrocortisone (HC) were administered in polyvinylpyrrolidone vehicle
The test compound was administered i.p. once daily from day 1 through day
10. […]
10. The incidence of paralysis was recorded and mean paralysis time was […]

[7] = 6.25 mg/kg i.p. once daily day 1-9
[8] = 12.5 mg/kg i.p. once daily day 1-9
[9] = 25.0 mg/kg i.p. once daily day 1-9
[10] = 50.0 mg/kg i.p. once daily day 1-9
[11] = 25 mg/kg i.p. once daily, day 1-11
[12] = 25 mg/kg i.p. once daily, day 7-11
[13] = 50 mg/kg i.p. once daily, day 1-11
[14] = 50 mg/kg i.p. once daily, day 7-11
[15] = 12.5 mg/kg i.p. once daily day 1-15
[16] = 25 mg/kg i.p. once daily day 1-15
[17] = 50 mg/kg i.p. once daily day 1-15
[18] = 25 mg/kg i.p. once daily day 1-9
[19] = 50 mg/kg i.p. once daily day 1-9
[20] = 0.20 mg/kg i.p. once daily day 1-9
[21] = 0.2 mg/kg i.p. once daily day 1-15

For COc1ccc(OC)c(C(=O)C(C)=Cc2ccc(N(C)C)cc2)c1 [1-(2,5-dimethoxyphenyl)-3-[4-(dimethylamino)phenyl]-2-methyl-2-propen-1-one], the “PERCENT T/C (survival)” value (L1210 Leukemia; [7]) was 126%, the “SURVIVAL TIME (Mean ± S.E., n = 20)” value (L1210 Leukemia; [7]) was 8.8 ± 0.2 days and the “PERCENT T/C (survival)” value (L1210 Leukemia; [8]) was 137%. For the same compound, the “SURVIVAL TIME (Mean ± S.E., n = 20)” value (L1210 Leukemia; [8]) was 9.6 ± 0.3 days, the “PERCENT T/C (survival)” value (L1210 Leukemia; [9]) was 146% and the “SURVIVAL TIME (Mean ± S.E., n = 20)” value (L1210 Leukemia; [9]) was 10.2 ± 0.2 days. The “PERCENT T/C (survival)” value (L1210 Leukemia; [10]) was 154%, the “SURVIVAL TIME (Mean ± S.E., n = 20)” value (L1210 Leukemia; [10]) was 10.8 ± 0.4 days and the “PERCENT INHIBITION (tumor weight)” value [1, 11] was 29%. For the same compound, the “TUMOR WEIGHT (Means ± S.E., n = 6)” value [1, 11] was 2.86 ± 0.38 g, the “PERCENT INHIBITION (tumor weight)” value [1, 12] was 21% and the “TUMOR WEIGHT (Means ± S.E., n = 6)” value [1, 12] was 3.19 ± 0.61 g. The “PERCENT INHIBITION (tumor weight)” value [1, 13] was 65%, the “TUMOR WEIGHT (Means ± S.E., n = 6)” value [1, 13] was 1.41 ± 0.32 g and the “PERCENT INHIBITION (tumor weight)” value [1, 14] was 31%. For the same compound, the “TUMOR WEIGHT (Means ± S.E., n = 6)” value [1, 14] was 2.70 ± 0.36 g, the minimal effective concentration (HeLa cells [2]; 1 hour, then washed and grown 18 hours in drug free medium) was 0.06 µg/mL and the minimal effective concentration (HeLa cells [2]; 6 hours) was 0.0038 µg/mL. For the same compound, the “PERCENT T/C (survival)” value (B16 Melanoma [3]; [15]) was 146%, the “SURVIVAL (MEAN ± S.E., n = 10)” value (B16 Melanoma [3]; [15]) was 20.4 ± 1.5 days and the “PERCENT T/C (survival)” value (B16 Melanoma [3]; [16]) was 183%. For the same compound, the “SURVIVAL (MEAN ± S.E., n = 10)” value (B16 Melanoma [3]; [16]) was 25.6 ± 4.8 days, the “PERCENT INHIBITION (tumor growth)” value (B16 Melanoma [4]; [15]) was 30% and the “TUMOR GROWTH (Mean ± S.E., n = 10)” value (B16 Melanoma [4]; [15]) was 4.66 ± 0.56 g. The “PERCENT INHIBITION (tumor growth)” value (B16 Melanoma [4]; [16]) was 32%, the “TUMOR GROWTH (Mean ± S.E., n = 10)” value (B16 Melanoma [4]; [16]) was 4.5 ± 0.70 g and the “PERCENT INHIBITION (tumor growth)” value (B16 Melanoma [4]; [17]) was 45%. For the same compound, the “TUMOR GROWTH (Mean ± S.E., n = 10)” value (B16 Melanoma [4]; [17]) was 3.66 ± 0.83 g, the “PERCENT T/C (survival)” value (P388 Leukemia; [18]) was 142% and the “SURVIVAL TIME (Mean ± S.E., n = 10)” value (P388 Leukemia; [18]) was 16.0 ± 1.5 days. For the same compound, the “PERCENT T/C (survival)” value (P388 Leukemia; [19]) was 141% and the “SURVIVAL TIME (Mean ± S.E., n = 10)” value (P388 Leukemia; [19]) was 15.8 ± 0.5 days.
In the case of CC[C@]1(O)C[C@@H]2CN(CCc3c([nH]c4ccccc34)[C@@](C(=O)OC)(c3cc4c(cc3OC)N(C)[C@H]3[C@@](O)(C(=O)OC)[C@H](OC(C)=O)[C@]5(CC)C=CCN6CC[C@]43[C@@H]65)C2)C1 [VINBLASTINE, vinblastine, reference compound], the “PERCENT T/C (survival)” value (L1210 Leukemia; [20]) is reported as 140%, the “SURVIVAL TIME (Mean ± S.E., n = 20)” value (L1210 Leukemia; [20]) is reported as 9.8 ± 0.4 days and the IC50 (HeLa cells [5]) is reported as 0.015 µg/mL (≈ 0.0185 µM). For the same compound, the minimal effective concentration (HeLa cells [2]; 6 h) was 0.0015 µg/mL, the “PERCENT T/C (survival)” value (B16 Melanoma [3]; [21]) was 180% and the “SURVIVAL (MEAN ± S.E., n = 10)” value (B16 Melanoma [3]; [21]) was 25.2 ± 2.3 days.
For CC[C@]1(O)C[C@H]2CN(CCc3c([nH]c4ccccc34)[C@@](C(=O)OC)(c3cc4c(cc3OC)N(C=O)[C@H]3[C@@](O)(C(=O)OC)[C@H](OC(C)=O)[C@]5(CC)C=CCN6CC[C@]43[C@@H]65)C2)C1 [VINCRISTINE, vincristine, reference compound], the “PERCENT T/C (survival)” value (L1210 Leukemia; [20]) was 146% and the “SURVIVAL TIME (Mean ± S.E., n = 20)” value (L1210 Leukemia; [20]) was 10.2 ± 0.4 days.
In the case of C[C@]12CCC(=O)C=C1CC[C@@H]1[C@@H]2[C@@H](O)C[C@@]2(C)[C@H]1CC[C@]2(O)C(=O)CO [HYDROCORTISONE, hydrocortisone], the “PERCENT INCIDENCE OF PARALYSIS” value [6] is reported as 74% and the “PARALYSIS TIME (Mean ± S.E.)” value ([6]; significant at p < 0.01) is reported as 11.0 ± 0.28 days.
